Assay results from patent publication US5703085A, “Xanthine derivatives” (Kyowa Hakko Kogyo Co., Ltd., priority 1994, dated 1997).
Where two headings read alike, the source gives them in different places.

Experiments:
[1] = Effect on haloperidol-induced catalepsy; format: in vivo, male ddY mice; conditions: 10 mg/kg po; for Total Score (catalepsy): 1 h after compound; for inhibition in vivo at 10 mg/kg: Mus musculus, 1 h, decrease in total score vs control group, read-out: Remission Rate (%)
Procedure: Effect on Haloperidol-Induced Catalepsy
Parkinson's disease is a clinical syndrome caused by degeneration and cell death of nigrostriatal dopaminergic neurons. Administration of haloperidol (dopamine D1 /D2 antagonist) induces catalepsy resulting from the blockade of postsynaptic dopamine D2 receptors.
The experiment was carried out using several groups of 5-week-old male ddY mice (weighing 22 to 24 g, Japan SLC), each group consisting of 5 or 10 mice. Haloperidol (manufactured by Janssen Pharmaceutica) was suspended in 0.3% CMC and imtraperitoneally administered to each mouse at a dose of 1.0 mg/kg. A test compound was suspended in injectable distilled water (manufactured by Otsuka Pharmaceutical Co., Ltd.) after adding Tween 80 [polyoxyethylene (20) sorbitan monooleate]. L-DOPA (manufactured by Kyowa Hakko Kogyo Co., Ltd.) and benserazide hydrochloride (manufactured by Kyowa Hakko Kogyo Co., Ltd.) were suspended in 0.3% CMC. One hour after the intraperitoneal administration of haloperidol, the suspension containing the test compound or the suspension containing no test compound [injectable distilled water (manufactured by Otsuka Pharmaceutical Co., Ltd.) containing Tween 80; control] were orally administered to the separate groups of the mice (0.1 ml per 10 g of body weight). One hour after the administration of the test compound, the forelimbs of each mouse and subsequently the hindlimbs of the same mouse were placed on a 4.5 cm-high, 1.0 cm-wide bar and catalepsy was estimated. All of the test compounds were orally administered at a dose of 10 mg/kg, and L-DOPA (100 mg/kg) and benserazide (25 mg/kg) were intraperitoneally administered together as a control. The catalepsy score and the standard of judgment are shown below. […]
Score Duration of the category
0: forelimbs less than 5 seconds
hindlimbs less than 5 seconds
1: forelimbs from 5 (inclusive)
to 10 (exclusive) seconds
2: forelimbs 10 seconds or more
3: (1) forelimbs from 5 (inclusive)
hindlimbs from 5 (inclusive)
or (2) forelimbs less than 5 seconds
hindlimbs 5 seconds or more
4: (1) forelimbs 10 seconds or more
or (2) forelimbs from 5 (inclusive)
hindlimbs 10 seconds or more
5: forelimbs 10 seconds or more
The effect of the compounds was evaluated by the total of the catalepsy scores of 5 or 10 mice in each group (25 or 50 points at the maximum). The groups wherein the total score was not more than 20 or 40 points were estimated to be effective. The number of the animals showing remission against catalepsy is the number of the mice for which the catalepsy score was not more than 4 points in 5 or 10 mice.

[2] = Effect on clonidine-induced aggressive behavior; format: in vivo, male ddY mice; conditions: po, clonidine 20 mg/kg ip; for Number of the Biting Attacks (mean ± S.E.M.), Test Compound-Treated Group: 30 min count
Procedure: Effect on Clonidine-Induced Aggressive Behavior
The enhancement effect of the test compounds on the aggressive behavior induced by intraperitoneal administration of clonidine [Eur. J. Pharmacol., 29, 374 (1968)] was investigated.
The experiment was performed using several groups of male ddY mice weighing 20 to 25 g (Japan SLC), each group consisting of two mice. A test compound was suspended in injectable distilled water (manufactured by Otsuka Pharmaceutical Co., Ltd.) after adding Tween 80. Clonidine hydrochloride (manufactured by Sigma Co.) was dissolved in physiological saline solution (manufactured by Otsuka Pharmaceutical Co., Ltd.). The suspension containing the test compound and the suspension containing no test compound (control) were orally administered to the separate groups of the mice (0.1 ml per 10 g of body weight). Sixty minutes after the oral administration of the test compound, clonidine hydrochloride (20 mg/kg) was intraperitoneally administered. The number of biting attacks during the 30 minutes immediately after the clonidine treatment was counted. The effect of the compounds was evaluated by comparing the number of biting attacks of the test compound-administered groups with that of control groups (significance test: Student' t-test).

A2 Receptor = biological target: T1, A2 Receptor (Rattus norvegicus, UniProt P30543); assay: Adenosine A2 receptor binding test (inhibition of 3H-CGS 21680 binding); conditions: rat corpus striatum, 3H-CGS 21680 4.0 nM
T1 construct: from tissue; host or cells: rat corpus striatum (membrane suspension)
T1 sequence (P30543 whole entry): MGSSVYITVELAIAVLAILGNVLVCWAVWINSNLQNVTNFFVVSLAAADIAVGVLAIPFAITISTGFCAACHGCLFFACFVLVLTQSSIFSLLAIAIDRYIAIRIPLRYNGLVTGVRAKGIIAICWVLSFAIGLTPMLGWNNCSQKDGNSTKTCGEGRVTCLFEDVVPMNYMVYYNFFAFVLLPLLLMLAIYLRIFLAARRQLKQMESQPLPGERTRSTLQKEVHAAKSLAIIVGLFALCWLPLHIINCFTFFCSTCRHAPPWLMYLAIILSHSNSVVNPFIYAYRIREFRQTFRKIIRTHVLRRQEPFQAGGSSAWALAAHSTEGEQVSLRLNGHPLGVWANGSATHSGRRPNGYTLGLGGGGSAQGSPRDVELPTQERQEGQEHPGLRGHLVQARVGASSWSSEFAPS
Procedure: Adenosine Receptor Antagonistic Activity (Adenosine A2 Receptor Binding Test)
The test was conducted according to the method of Bruns et al. [Mol. Pharmacol., 29, 331 (1986)] with slight modification.
Corpus striatum of a rat was suspended in ice-cooled 50 mM Tris (hydroxymethyl) aminomethane hydrochloride (Tris HCl) buffer (pH 7.7) by using Polytron homogenizer (manufactured by Kinematica Co.). The suspension was centrifuged (50,000×g, 10 minutes), and the precipitate was suspended again in the same amount of 50 mM Tris HCl buffer. The suspension was centrifuged under the same conditions, and the final precipitate was suspended in 50 mM Tris HCl buffer [containing 10 mM magnesium chloride and 0.02 unit/mg tissue of adenosine deaminase (manufactured by Sigma Co.)] to give a tissue concentration of 5 mg (wet weight)/ml.
To 1 ml of the tissue suspension thus prepared were added 50 μl of tritium labeled CGS 21680 {^3 H-2-[p-(2-carboxyethyl) phenethylamino]-5'-(N-ethylcarboxamide)-adenosine: 40 Ci/mmol; manufactured by New England Nuclear Co. [J. Pharmacol. Exp. Ther., 251, 888 (1989)]} (final concentration: 4.0 nM) and 50 μl of a test compound. The resulting mixture was allowed to stand at 25° C. for 120 minutes and then rapidly filtered by suction through a glass fiber filter (GF/C; manufactured by Whatman Co.). The filter was immediately washed three times with 5 ml each of ice-cooled 50 mM Tris HCl buffer, and transferred to a vial, and a scintillator (EX-H; manufactured by Wako Pure Chemical Industries, Ltd.) was added thereto. The radioactivity on the filter was determined with a liquid scintillation counter (manufactured by Packard Instrument Co.).
The inhibition rate of the test compound against the binding of A2 receptors (^3 H-CGS 21680 binding) was calculated by the following equation: [formula] [Notes]B: Amount of the binding in the presence of the test compound.
T: Amount of the total binding.
N: Amount of the nonspecific binding.
Amount of the total binding means the amount of radioactivity of ^3 H-CGS 21680 bound in the absence of the test compound. Amount of the nonspecific binding means the amount of radioactivity of ^3 H-CGS 21680 bound in the presence of 100 μM cyclopentyladenosine (CPA; manufactured by Sigma Co.). Amount of the binding in the presence of the test compound means the amount of radioactivity of ^3 H-CGS 21680 bound in the presence of the test compound at various levels of concentrations.

[3] = 5 mice (max 25 points; control 25)
[4] = out of 5 mice (score not more than 4)
[5] = out of 10 mice (score not more than 4)

| SMILES | Total Score (catalepsy) [1, 3] | Number of Animals Showing Remission [1, 4] | inhibition in vivo at 10 mg/kg ([1]; 5 mice) [%] | Ratio of Attacks: Test Compd.-Treated Group/Control Group ([2]; 0.63 mg/kg) | Number of the Biting Attacks (mean ± S.E.M.), Test Compound-Treated Group ([2]; 0.63 mg/kg) | A2 Receptor Inhibition Rate (%) (A2 Receptor; 10^-6 M) | A2 Receptor Inhibition Rate (%) (A2 Receptor; 10^-7 M) | Ratio of Attacks: Test Compd.-Treated Group/Control Group ([2]; 10 mg/kg) | Number of the Biting Attacks (mean ± S.E.M.), Test Compound-Treated Group ([2]; 10 mg/kg) | Total Score (catalepsy) ([1]; 10 mice (max 50 points)) | Number of Animals Showing Remission [1, 5] | inhibition in vivo at 10 mg/kg ([1]; 10 mice) [%] | Ratio of Attacks: Test Compd.-Treated Group/Control Group ([2]; 2.5 mg/kg) | Number of the Biting Attacks (mean ± S.E.M.), Test Compound-Treated Group ([2]; 2.5 mg/kg) |
| --- | --- | --- | --- | --- | --- | --- | --- | --- | --- | --- | --- | --- | --- | --- |
| CCn1c(=O)c2c(nc(/C=C/c3ccc(OC(C)=O)c(OC)c3)n2C)n(CC)c1=O [Compound 5, (E)-8-(4-Acetoxy-3-methoxystyryl)-1,3-diethyl-7-methylxanthine] | 2 | 5 | 92 | 4.9 | 19.1 ± 6.6 | 100 | 91 |  |  |  |  |  |  |  |
| CCCn1c(=O)c2c(nc(/C=C/c3ccc(OC(=O)c4ccccc4)c(OC)c3)n2C)n(CCC)c1=O [Compound 6, (E)-8-(4-Benzoyloxy-3-methoxystyryl)-7-methyl-1,3-dipropylxanthine] | 9 | 5 | 64 |  |  | 96 | 81 | 16.0 | 36.8 ± 10.8 |  |  |  |  |  |
| CCC(=O)Oc1ccc(/C=C/c2nc3c(c(=O)n(CC)c(=O)n3CC)n2C)cc1OC [Compound 12, (E)-1,3-Diethyl-8-(3-methoxy-4-propionyloxystyryl)-7-methylxanthine] |  |  |  |  |  | 96 | 86 |  |  | 10 | 10 | 80 | 20.3 | 38.5 ± 8.4 |
| CCn1c(=O)c2c(nc(/C=C/c3ccc(OC(C)=O)cc3)n2C)n(CC)c1=O [Compound 14, (E)-8-(4-Acetoxystyryl)-1,3-diethyl-7-methylxanthine] |  |  |  | 4.1 | 21.4 ± 7.4 | 93 | 86 |  |  | 11 | 10 | 78 |  |  |
